Results on 20 compounds are retold here after PubChem BioAssay (NCI).

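Tested at 5 concentrations; 48 h exposure; 96-well plates; endpoints linearly interpolated, else capped at highest concentration. The concentration for 50% growth inhibition is given as GI50. TGI is the concentration that stops growth completely.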

Some test systems named below: DMS 114 small cell lung; DU-145 prostate; HOP-18 NSCLC; HS 578T breast; KM20L2 colon; LXFL 529 NSCLC; M19-MEL melanoma; MDA-MB-231 breast; MDA-MB-435; RXF-631 renal; T-47D breast.
What all share (experiment): NCI tumour cell line growth inhibition, 48 h

For the compound `Cc1cc(C2CCCCC2)n(O)c(=O)c1`, the TGI in the experiment with DMS 114 small cell lung, in the experiment on DU-145 prostate, with HOP-18 NSCLC, in the experiment with HS 578T breast, in the experiment with KM20L2 colon and with LXFL 529 NSCLC was over 100 µM in each case. The TGI in the experiment with M19-MEL melanoma, with MDA-MB-231 breast, in the experiment with MDA-MB-435, with RXF-631 renal and in the experiment on T-47D breast was over 100 µM throughout. In addition, the GI50 in the experiment on DU-145 prostate was 2.04 µM; with HS 578T breast it was 46 µM; in the experiment on MDA-MB-231 breast, 2.16 µM; with MDA-MB-435, 2.27 µM; in the experiment on T-47D breast, 2.63 µM.
Consider `Cc1cccc(N2C(=O)C(Cl)=C(Cl)C2=O)c1`, for which the TGI in the experiment on DMS 114 small cell lung is over 100 µM; in the experiment with HOP-18 NSCLC, over 100 µM; with KM20L2 colon it was over 100 µM; with LXFL 529 NSCLC it was over 56.3 µM; in the experiment with M19-MEL melanoma, over 100 µM.
As for `COC(=O)C(=O)C(C(=O)C(=O)Nc1ccc(C)cc1C)c1nc2ccccc2[nH]c1=O` (stereo not given), the TGI in the experiment on HOP-18 NSCLC, with KM20L2 colon, in the experiment on LXFL 529 NSCLC, in the experiment with M19-MEL melanoma and in the experiment with RXF-631 renal was over 100 µM each time.
Consider `C#CC[C@]12CC(=O)CC[C@H]1CC(=O)C2`, for which the TGI in the experiment with HOP-18 NSCLC, in the experiment with KM20L2 colon, in the experiment on LXFL 529 NSCLC, in the experiment on M19-MEL melanoma and with RXF-631 renal was over 100 µM each time.
In the case of `O=C(CC(=O)N1N=C(c2ccccc2)C(N=Nc2ccc(Cl)cc2)C1=O)Nc1ccccc1Cl` (stereo not given), the TGI with DMS 114 small cell lung is over 100 µM; in the experiment with HOP-18 NSCLC, 67.8 µM; in the experiment on KM20L2 colon, over 100 µM; in the experiment with LXFL 529 NSCLC, over 100 µM; in the experiment on M19-MEL melanoma it was over 100 µM; in the experiment with RXF-631 renal, over 100 µM.
As for `N#Cc1cnsc1`, the TGI in the experiment with DMS 114 small cell lung, with HOP-18 NSCLC, with KM20L2 colon, with LXFL 529 NSCLC, in the experiment on M19-MEL melanoma and with RXF-631 renal was over 100 µM each time.
`CC(=O)c1ccc(NC(=O)/C(Cc2ccccn2)=N/NC(=O)C[N+](C)(C)C)cc1`: the TGI in the experiment with DMS 114 small cell lung, with HOP-18 NSCLC, in the experiment with KM20L2 colon, in the experiment on LXFL 529 NSCLC, in the experiment with M19-MEL melanoma and with RXF-631 renal was over 100 µM throughout.
For the compound `COc1cc(Cc2cc(OC)c(OC)c(OC)c2)ccc1O`, the TGI with DMS 114 small cell lung, with KM20L2 colon, with LXFL 529 NSCLC and in the experiment with M19-MEL melanoma was over 100 µM throughout.
In the case of `COC(=O)C(=O)C(C(=O)C=C(C)C)C(=O)C(=O)Nc1ccc(Cl)cc1C` (stereo not given), the TGI in the experiment on DMS 114 small cell lung, in the experiment with HOP-18 NSCLC, in the experiment with KM20L2 colon, in the experiment on LXFL 529 NSCLC, in the experiment on M19-MEL melanoma and in the experiment with RXF-631 renal was over 100 µM in each case.
In the case of `NC1C2(CCCCCC2)NC(=O)C12CCCCCC2` (stereo not given), the TGI in the experiment on DMS 114 small cell lung, in the experiment on HOP-18 NSCLC, in the experiment on LXFL 529 NSCLC and in the experiment with RXF-631 renal was over 100 µM in each case.
On to `CC(C)=CC(=O)N1CCN(C(=O)C=C(C)C)CC1`, for which the TGI in the experiment on DMS 114 small cell lung, with HOP-18 NSCLC, in the experiment on KM20L2 colon, with LXFL 529 NSCLC, in the experiment on M19-MEL melanoma and with RXF-631 renal was over 100 µM throughout.
On to `O=C1C2=C(CC3C(C2)C3(Br)Br)C(=O)C2=C1CC1C(C2)C1(Br)Br` (stereo not given), for which the TGI with HOP-18 NSCLC, in the experiment with KM20L2 colon, in the experiment with LXFL 529 NSCLC, with M19-MEL melanoma and with RXF-631 renal was over 100 µM throughout.
On to `N#CCCN(c1ccc(/C=C2\N=C(c3ccc(Cl)cc3)OC2=O)cc1)S(=O)(=O)c1ccccc1`, for which the TGI with DMS 114 small cell lung, with KM20L2 colon, in the experiment on LXFL 529 NSCLC, in the experiment with M19-MEL melanoma and in the experiment on RXF-631 renal was over 100 µM throughout.
`Nc1c(-c2ccc(Br)cc2)[n+]([O-])c2ccccc2[n+]1[O-]`: the TGI in the experiment on DMS 114 small cell lung, in the experiment on HOP-18 NSCLC, with KM20L2 colon, in the experiment on LXFL 529 NSCLC and with RXF-631 renal was over 100 µM throughout.
In the case of `CCOC(=O)NC(=O)c1cn(CCCOC(=O)NCCCCCCNC(=O)OCCCn2c(=O)c(C(=O)NC(=O)OCC)cn(C)c2=O)c(=O)n(C)c1=O`, the TGI in the experiment on DMS 114 small cell lung, in the experiment with HOP-18 NSCLC, in the experiment with KM20L2 colon, in the experiment on LXFL 529 NSCLC, with M19-MEL melanoma and with RXF-631 renal was over 100 µM throughout.
Regarding `N#CCCN(CCC#N)c1ccc(/C=C2\N=C(CN3C(=O)c4ccccc4C3=O)OC2=O)cc1`, the TGI in the experiment on DMS 114 small cell lung, in the experiment with KM20L2 colon, in the experiment on LXFL 529 NSCLC, in the experiment on M19-MEL melanoma and in the experiment with RXF-631 renal was over 100 µM each time.
Regarding `Cc1ccc(N=NC(C(=O)c2ccccc2)C(=O)c2ccccc2)cc1`, the TGI is 54.7 µM in the experiment on DMS 114 small cell lung; 60.9 µM in the experiment with KM20L2 colon; over 100 µM in the experiment on LXFL 529 NSCLC; 41.2 µM in the experiment with M19-MEL melanoma; over 100 µM in the experiment on RXF-631 renal.
Take `CSc1nc(NC2OC(COC(C)=O)C(OC(C)=O)C(OC(C)=O)C2OC(C)=O)c2c(OC(C)=O)c(C)c(=O)oc2n1` (stereo not given): the TGI in the experiment with DMS 114 small cell lung, in the experiment with HOP-18 NSCLC, with KM20L2 colon, with LXFL 529 NSCLC and in the experiment with M19-MEL melanoma was over 100 µM in each case.
As to `CNC=O.[O]=[Ge].[O]=[Ge].[O]=[Ge].[O]=[Ge][OH].[O]=[Ge][OH]`, the TGI with DMS 114 small cell lung, in the experiment on HOP-18 NSCLC, in the experiment with KM20L2 colon, in the experiment with LXFL 529 NSCLC and in the experiment on M19-MEL melanoma was over 100 µM throughout. In addition, the GI50 with LXFL 529 NSCLC is over 100 µM.
`CCC(C)(O)c1cn(-c2cccc(S(=O)(=O)O)c2)nn1` (stereo not given): the TGI with DMS 114 small cell lung, in the experiment with HOP-18 NSCLC, in the experiment on KM20L2 colon and in the experiment with LXFL 529 NSCLC was over 100 µM each time.
